Patent US6340705B1, “Use of α-linolenic acid metabolites for treatment or prevention of cancer” (Monsanto Technology, LLC, priority 1999, dated 2002)
Marks after values point to notes of the source that are not given here.

Assays:
[1] = system: Min/+ mouse model of intestinal cancer; experiment: Intestinal polyp formation in the Min/+ mouse model of intestinal cancer; assay type: in vivo; set-up: Avg. large intestine tumor size: unit not given here; settings: Min/+ mice
Protocol: The efficacy of select n-3 and n-6 polyunsaturated fatty acids was evaluated in the Min/+ mouse model of intestinal cancer. The following fatty acid ethyl esters were tested for their effect on intestinal polyp formation: 1) ALA-EE; 2) SDA-EE; 2) EPA-EE; 4) DHA-EE; 5) GLA-EE ([…], 18:3 n-6); and 6) CLA-EE (conjugated linoleic acid; c9t11-18:2 (77%)+c9c11-18:2 (18%)+other isomers (5%)).
These fatty acid ethyl esters were added to the US17 diet to provide 10 g/day human equivalent dose (3% wt.). The NSAID, sulindac (320 ppm), served as the positive control. In order to maintain a 17% fat (37 en%) content in the US17 diet, oleic acid (18:1 n-9) was removed from the US17 diet in an amount equal to the amount of the fatty acid ethyl ester that was added. Mice were received at approximately five weeks of age and were fed the test diets upon receipt. After seven weeks on the respective test diet, the mice were sacrificed and the intestinal polyps were counted and measured.

HT-29 cells = experiment: Primary tumor growth in the nude mouse/HT-29 cancer model; assay type: in vivo; settings: nude mice, HT-29 cells in footpad, US17 diet containing stearidonic acid 3% (10 g/day human equivalent dose), after 35 days
Protocol: The efficacy of stearidonic acid (18:4n-3) in inhibiting primary tumor growth was evaluated using the nude mouse/HT-29 model. The nude mouse/HT-29 model has been described previously. Hernandez-Alcoceloa R., Fernandez, F., Lacal, J C, Cancer Res., 59(13), 312-18 (1999); Fantini, J., Cancer J., 5(2) (1992).
Nude (i.e., immunodeficient) mice were fed the US17 diet for three weeks. HT-29 cells were cultured in RPMI-1640 medium supplemented with fetal bovine serum, penicillin, and streptomycin (Gibco, Grand Island, N.Y.) and maintained in a CO2 atmosphere at 37° C. After achieving the optimal cell density, the HT-29 cells were rinsed and then suspended in phosphate buffered saline (PBS). A cell suspension was made in MATRIGEL (Becton Dickinson Labware, Bedford, Mass.). The suspension was ⅔ by volume cells in PBS and ⅓ by volume MATRIGEL. MATRIGEL provides an extracellular matrix secreted by […]. The matrix contains angiogenic and cell proliferation growth factors that aid in HT-29 cell attachment and proliferation as a primary tumor.
One million cells were injected in a 30 μl volume into the subplanter area of the righthind footpad of the nude mice. […] The amount of primary tumor growth was measured by measuring the change in mouse footpad volume over time. Footpad volume was measured with a plethysmometer (Ugo Basile, Camerio-Varese, Italy).

HepG2 cells [2] = experiment: Uptake of 14C-ALA, 14C-SDA and 14C-EPA by HepG2 cells; assay type: in vitro ADME
Protocol: To a culture medium containing HepG2 cells was added 20 μM ^14C-ALA, ^14C-SDA or ^14C-EPA complexed to fatty acid free BSA. The amount of ^14C-ALA, ^14C-SDA or ^14-EPA EPA Taken up by the HepG2 cells was measured 6 hours, 24 hours and 48 hours after addition of the fatty acid. A scintillation counter was used to measure the total amount of radioactivity in the HepG2 cells and the amount remaining in the medium.

[3] = Arachidonic acid level in phospholipid fraction of small intestine, Min/+ mouse; assay type: in vivo; settings: Min/+ mice, fed as ethyl esters, 10 g/day human equivalent dose in US17 diet
Protocol: Fatty acid composition was determined in the small intestine because that is where the vast majority of polyps form. These fatty acid esters were added to the US17 diet as discussed in Example 8. The arachidonic acid level in the phospholipid fraction of the small intestines of the mice was determined by gas chromatography. In FIG. 11, bars labeled with the same letter (e.g., control and CLA, both labeled with a “b”) have values which, statistically, are not different.

HepG2 cells [4] = experiment: Metabolism of radiolabeled fatty acids to long chain n-3 PUFAs (EPA, DHA) in HepG2 cells; assay type: in vitro ADME
Protocol: HepG2 cells were allowed to take up ^14C-ALA or ^14C-SDA as described in Example 2. The total amount of ^14C-EPA, ^14C-DPA and ^14C-DHA present in the HepG2 cells was measured 6 hours, 24 hours and 48 hours after addition of the fatty acid by argentation thin layer chromatography (TLC). The amount of each fatty acid present as a band on the TLC plate was quantified by electronic autoradiography using an Instant Imager supplied by Packard (Meriden, Conn.).
HepG2 cells were allowed to take up ^14C-ALA, ^14C-SDA or ^14C-EPA as described in Example 2. The amount of ^14C-EPA and ^14C-DHA present in the HepG2 cells was measured 6 hours, 24 hours and 48 hours after addition of the fatty acids by argentation thin layer chromatography (TLC) as described in Example 3. The amount of ^14C-EPA and ^14C-DHA present as bands on the TLC plate were quantified by electronic autoradiography using an Instant Imager as described in Example 3.

[5] = assay type: in vivo, rats; settings: rats, US17 diet with 1, 3 or 10 g/day human equivalent dose, one month
Text: Mice were fed a US17 diet containing α-linolenic acid ethyl ester (ALA-EE), stearidonic acid ethyl ester (SDA-EE), eicosapentaenoic acid ethyl ester (EPA-EE), or docosahexaenoic acid ethyl ester (DHA-EE) in an amount equivalent to a human western diet containing 1, 3 or 10 g/day of the fatty acid (g/day human equivalent dose). In order to maintain a 17% fat (37 en %) content in the US17 diet, oleic acid (18:1 n-9), as an oleic acid cassette, was removed from the US17 diet in an amount equal to the amount of fatty acid ester that was added. Oleic acid was selected as the replacement fatty acid because literature reports indicate that oleic acid is neutral with respect to inflammation and cancer.
After one month on the respective US17-based diets, the mice were sacrificed and the fatty acid composition of each of their livers was analyzed by gas chromatography. The results of these analyses are pressured in FIG. 8.
The method used was as described in Example 6 except that rats were used in place of mice.

[6] = large intestine and small intestine, versus US17 diet, 10 g/day human equivalent dose
[7] = 10 g/day human equivalent dose (3% wt.) or sulindac 320 ppm, seven weeks, mean ± SEM
[8] = 10 g/day human equivalent dose (3% wt.) or sulindac 320 ppm, seven weeks, mean ± SEM, tumor number × tumor size
[9] = fatty acid ethyl ester 10 g/day human equivalent dose (3% wt.) in US17 diet or sulindac 320 ppm, seven weeks
[10] = large and small intestine, 10 g/day human equivalent dose (3% wt.) or sulindac 320 ppm, seven weeks, mean ± SEM

With CC/C=C\C/C=C\C/C=C\C/C=C\CCCCC(=O)O [SDA, stearidonic acid] the “effectiveness in inhibiting polyp formation and development in the large intestine” value ([1]; 10 g/day human equivalent dose) was “comparable to that of sulindac”, the “effectiveness in inhibiting polyp formation and development in the small intestine” value ([1]; 10 g/day human equivalent dose) was “comparable to that of EPA” and the “decrease in polyp load (number×size)” value [1, 6] was 56%. For the same compound, the “decrease in polyp number” value [1, 6] was 47%, the “decrease in polyp size” value [1, 6] was 18% and the “Total small intestine tumors/group” value ([1]; 10 g/day human equivalent dose (3% wt.) or sulindac 320 ppm, seven weeks) was 185. For the same compound, the “Avg. large intestine tumors/mouse” value [1, 7] was 0.2 ± 0.1^d, the “Avg. small intestine tumor size” value [1, 7] was 1.07 ± 0.02^ab mm and the “Avg. small intestine tumors/mouse” value [1, 7] was 18.5 ± 1.9^c. The “Avg. large intestine tumor size” value ([1]; 10 g/day human equivalent dose (3% wt.) or sulindac 320 ppm, seven weeks, mean ± SEM, only animals bearing colonic tumors) was 1.50 ± 0.00^b, the “Avg. large intestine tumor load” value [1, 8] was 0.30 ± 0.20^d mm and the “Avg. small intestine tumor load” value [1, 8] was 19.90 ± 2.11^cd mm. For the same compound, the “Total large intestine tumors/group” value [1, 9] was 2, the “Total large intestine tumors/group, figure in brackets (animals bearing tumors/animals in group)” value [1, 9] was 2/10 and the “Total Avg. overall tumor load” value [1, 10] was 20.19 ± 2.24^cd mm. The “Total Avg. overall tumor size” value [1, 10] was 1.08 ± 0.02^d mm, the “Total Avg. tumors/mouse” value [1, 10] was 18.7 ± 1.9^a and the “less primary tumor growth (footpad volume) than US17 diet” value (HT-29 cells) was 33%. The “radiolabeled fatty acid taken up by the cells” value (HepG2 cells [2]; 20 μM complexed to fatty acid free BSA, within the first six hours of incubation) was “Approximately 95%”, the “uptake by HepG2 cells, comparison (FIG. 1)” value (HepG2 cells [2]; 20 μM, 6, 24 and 48 hours) was “taken up equally” and the “decreasing the level of arachidonic acid in the small intestine (phospholipid fraction, FIG. 11)” value [3] was “more effective than ALA, EPA and DHA”. For the same compound, the “metabolism to long chain n-3 PUFAs, comparison (FIG. 2 to FIG. 3)” value (HepG2 cells [4]) was “faster than that of ALA”, the “rate of metabolism to EPA and further to DHA relative to ALA” value (HepG2 cells [4]) was “approximately twice that of ALA” and the “metabolized to 14C-fatty acid end products (EPA or DHA) or intermediates (20:4 n-3, 22:5 n-3, 24:5 n-3)” value (HepG2 cells [4]; 20 μM) was about 95%. For the same compound, the “level of arachidonic acid in liver tissue (FIG. 9)” value [5] was “greater decrease in the level of arachidonic acid than did either ALA or EPA”.
